Data taken from patent publication US20230085307A1, “PYRIDAZINONE COMPOUND AND HERBICIDE” (NISSAN CHEMICAL CORPORATION, priority 2019, published 2023).

Columns and labels:
false cleavers [1] = test: Test Example 4: herbicidal effect by soil treatment (Table 19, symbol Q); format: in vivo, false cleavers (Galium spurium)
In short: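 Applied as a water-diluted emulsion, the compound was sprayed onto soil covering newly sown seeds. Evaluation came three weeks after application, in a greenhouse held at 25° C. to 30° C.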

windgrass = test: Test Example 5: herbicidal effect by foliage application, plastic box (Table 20, symbol L); format: in vivo, windgrass (Apera spica-venti); details: foliage application; for effect on windgrass (L): 3 weeks after application; for herbicidal effect grade, L: windgrass / L: windgrass, herbicidal effect: three weeks after application; for L: windgrass, herbicidal effect / L: windgrass, herbicidal effect (criteria 0-5): AAH 320 g/ha
In short: (§1)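 Sow seeds spot-wise in sterilized diluvial soil; cover with ~1.5 cm soil. Grow 14 days in greenhouse, 25° C. to 30° C. Spray foliage with emulsion diluted to predetermined amount. Rate effect after 3 weeks.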

false cleavers [2] = test: Test Example 5: herbicidal effect by foliage application, plastic box (Table 20, symbol Q); format: in vivo, false cleavers (Galium spurium); details: foliage application; for herbicidal effect grade, Q: false cleavers / Q: false cleavers, herbicidal effect: three weeks after application; for Q: false cleavers, herbicidal effect / Q: false cleavers, herbicidal effect (criteria 0-5): AAH 320 g/ha; for effect on false cleavers (Q): 3 weeks after application; for herbicidal effect on Q: false cleavers / Q: false cleavers, herbicidal effect (criteria 0-5): evaluated three weeks after application
In short: as §1

[3] = amount of applied herbicide 320 g/ha
[4] = 320 g/ha, evaluated three weeks after application
[5] = evaluated three weeks after application

C#CC(C)Oc1ccc(-c2sc3ccccc3c2-c2c(O)c(C)nn(C)c2=O)cc1 (racemic) [1-217]
Q: false cleavers, herbicidal effect rating (false cleavers [1]; AAH 320 g/ha): 3 (Herbicidal rate of 40% or more and less than 70%)
effect on windgrass (L) (windgrass; 320 g/ha): 5 (Herbicidal rate of 90% or more (almost completely withered))

C#CC(C)Oc1ccc(-c2sc3ccccc3c2-c2c(OCOCCOC)c(C)nn(C)c2=O)cc1 (racemic) [1-218]
Q: false cleavers, herbicidal effect rating (false cleavers [1]; AAH 187 g/ha): 0 (Herbicidal rate of 5% or less (almost no effect))
effect on windgrass (L) (windgrass; 187 g/ha): 0 (Herbicidal rate of 5% or less (almost no effect))

CCCOc1ccccc1-c1sc2ccccc2c1-c1c(O)c(C)nn(C)c1=O [1-015]
herbicidal effect rating, Q: false cleavers (false cleavers [1]; [3]): 3 (Herbicidal rate of 40% or more and less than 70%)
herbicidal effect grade, L: windgrass (windgrass; 320 g/ha): 5 (Herbicidal rate of 90% or more (almost completely withered))
herbicidal effect grade, Q: false cleavers (false cleavers [2]; 320 g/ha): 5 (Herbicidal rate of 90% or more (almost completely withered))

CCCCCOc1ccc(-c2sc3ccccc3c2-c2c(O)c(C)nn(C)c2=O)cc1 [1-026]
herbicidal effect rating, Q: false cleavers (false cleavers [1]; [3]): 0 (Herbicidal rate of 5% or less (almost no effect))
herbicidal effect grade, L: windgrass (windgrass; 320 g/ha): 4 (Herbicidal rate of 70% or more and less than 90%)
herbicidal effect grade, Q: false cleavers (false cleavers [2]; 320 g/ha): 4 (Herbicidal rate of 70% or more and less than 90%)

Cc1nn(C)c(=O)c(-c2c(-c3ccccc3OC(F)(F)F)sc3ccccc23)c1O [1-030]
herbicidal effect rating, Q: false cleavers (false cleavers [1]; [3]): 5 (Herbicidal rate of 90% or more (almost completely withered))
herbicidal effect grade, L: windgrass (windgrass; 320 g/ha): 5 (Herbicidal rate of 90% or more (almost completely withered))
herbicidal effect grade, Q: false cleavers (false cleavers [2]; 320 g/ha): 5 (Herbicidal rate of 90% or more (almost completely withered))

CC(=O)c1ccc(-c2sc3ccccc3c2-c2c(O)c(C)nn(C)c2=O)cc1 [1-041]
herbicidal effect rating, Q: false cleavers (false cleavers [1]; [3]): 5 (Herbicidal rate of 90% or more (almost completely withered))
herbicidal effect grade, L: windgrass (windgrass; 320 g/ha): 4 (Herbicidal rate of 70% or more and less than 90%)
herbicidal effect grade, Q: false cleavers (false cleavers [2]; 320 g/ha): 4 (Herbicidal rate of 70% or more and less than 90%)

CCCC(=O)Oc1c(C)nn(C)c(=O)c1-c1c(-c2ccc(C(C)=NOC)cc2)sc2ccccc12 [1-044]
herbicidal effect rating, Q: false cleavers (false cleavers [1]; [3]): 4 (Herbicidal rate of 70% or more and less than 90%)
herbicidal effect grade, L: windgrass (windgrass; 320 g/ha): 3 (Herbicidal rate of 40% or more and less than 70%)
herbicidal effect grade, Q: false cleavers (false cleavers [2]; 320 g/ha): 3 (Herbicidal rate of 40% or more and less than 70%)

Cc1cc(-c2sc3ccccc3c2-c2c(O)c(C)nn(C)c2=O)ccc1F [1-051]
herbicidal effect rating, Q: false cleavers (false cleavers [1]; [3]): 0 (Herbicidal rate of 5% or less (almost no effect))
herbicidal effect grade, L: windgrass (windgrass; 320 g/ha): 4 (Herbicidal rate of 70% or more and less than 90%)
herbicidal effect grade, Q: false cleavers (false cleavers [2]; 320 g/ha): 0 (Herbicidal rate of 5% or less (almost no effect))

CCOc1cc(F)ccc1-c1sc2ccccc2c1-c1c(O)c(C)nn(C)c1=O [1-061]
herbicidal effect rating, Q: false cleavers (false cleavers [1]; [3]): 4 (Herbicidal rate of 70% or more and less than 90%)
herbicidal effect grade, L: windgrass (windgrass; 320 g/ha): 5 (Herbicidal rate of 90% or more (almost completely withered))
herbicidal effect grade, Q: false cleavers (false cleavers [2]; 320 g/ha): 5 (Herbicidal rate of 90% or more (almost completely withered))

COC(=O)Oc1c(C)nn(C)c(=O)c1-c1c(-c2ccc3c(c2)OCCO3)sc2ccccc12 [1-091]
herbicidal effect rating, Q: false cleavers (false cleavers [1]; [3]): 3 (Herbicidal rate of 40% or more and less than 70%)
L: windgrass, herbicidal effect (windgrass): 1 (Herbicidal rate of 5% or more and less than 20%)
Q: false cleavers, herbicidal effect (false cleavers [2]): 4 (Herbicidal rate of 70% or more and less than 90%)

Cc1nn(C)c(=O)c(-c2c(-c3ccc4c(c3)OCCO4)sc3ccccc23)c1OC(=O)SC(C)(C)C [1-092]
herbicidal effect rating, Q: false cleavers (false cleavers [1]; [3]): 0 (Herbicidal rate of 5% or less (almost no effect))
L: windgrass, herbicidal effect (windgrass): 0 (Herbicidal rate of 5% or less (almost no effect))
Q: false cleavers, herbicidal effect (false cleavers [2]): 0 (Herbicidal rate of 5% or less (almost no effect))

Cc1nn(C)c(=O)c(-c2c(-c3ccc4c(c3)CCO4)sc3ccccc23)c1O [1-101]
herbicidal effect rating, Q: false cleavers (false cleavers [1]; [3]): 3 (Herbicidal rate of 40% or more and less than 70%)
L: windgrass, herbicidal effect (windgrass): 5 (Herbicidal rate of 90% or more (almost completely withered))
Q: false cleavers, herbicidal effect (false cleavers [2]): 3 (Herbicidal rate of 40% or more and less than 70%)

CCCC(=O)Oc1c(C)nn(C)c(=O)c1-c1c(-c2ccc3c(c2)CCO3)sc2ccccc12 [1-102]
herbicidal effect rating, Q: false cleavers (false cleavers [1]; [3]): 0 (Herbicidal rate of 5% or less (almost no effect))
L: windgrass, herbicidal effect (windgrass): 0 (Herbicidal rate of 5% or less (almost no effect))
Q: false cleavers, herbicidal effect (false cleavers [2]): 1 (Herbicidal rate of 5% or more and less than 20%)

COCc1ccc(-c2sc3ccccc3c2-c2c(O)c(C)nn(C)c2=O)cc1 [1-131]
Q: false cleavers, herbicidal effect rating (false cleavers [1]; AAH 320 g/ha): 0 (Herbicidal rate of 5% or less (almost no effect))
L: windgrass, herbicidal effect (windgrass): 4 (Herbicidal rate of 70% or more and less than 90%)
Q: false cleavers, herbicidal effect (false cleavers [2]): 4 (Herbicidal rate of 70% or more and less than 90%)

Cc1nn(C)c(=O)c(-c2c(-c3ccc(OCCBr)cc3)sc3ccccc23)c1O [1-204]
Q: false cleavers, herbicidal effect rating (false cleavers [1]; AAH 320 g/ha): 0 (Herbicidal rate of 5% or less (almost no effect))
effect on windgrass (L) (windgrass; 320 g/ha): 0 (Herbicidal rate of 5% or less (almost no effect))

C=C(C)COc1ccc(-c2sc3ccccc3c2-c2c(O)c(C)nn(C)c2=O)cc1 [1-208]
Q: false cleavers, herbicidal effect rating (false cleavers [1]; AAH 320 g/ha): 0 (Herbicidal rate of 5% or less (almost no effect))
effect on windgrass (L) (windgrass; 320 g/ha): 4 (Herbicidal rate of 70% or more and less than 90%)

Cc1nn(C)c(=O)c(-c2c(-c3ccc(OCCC4OCCO4)cc3)sc3ccccc23)c1O [1-223]
Q: false cleavers, herbicidal effect rating (false cleavers [1]; AAH 246 g/ha): 0 (Herbicidal rate of 5% or less (almost no effect))
effect on windgrass (L) (windgrass; 246 g/ha): 4 (Herbicidal rate of 70% or more and less than 90%)

CCCC(=O)Oc1c(C)nn(C)c(=O)c1-c1c(-c2ccccc2OCC)sc2ccc(F)cc12 [2-029]
herbicidal effect rating, Q: false cleavers (false cleavers [1]; 266 g/ha): 3 (Herbicidal rate of 40% or more and less than 70%)
effect on windgrass (L) (windgrass; 266 g/ha): 1 (Herbicidal rate of 5% or more and less than 20%)
effect on false cleavers (Q) (false cleavers [2]; 266 g/ha): 4 (Herbicidal rate of 70% or more and less than 90%)

CCCOc1ccc(-c2sc3ccc(F)cc3c2-c2c(O)c(C)nn(C)c2=O)cc1 [2-032]
herbicidal effect rating, Q: false cleavers (false cleavers [1]; 320 g/ha): 0 (Herbicidal rate of 5% or less (almost no effect))
effect on windgrass (L) (windgrass; 320 g/ha): 4 (Herbicidal rate of 70% or more and less than 90%)

Cc1nn(C)c(=O)c(-c2c(-c3ccc(OC(C)C)cc3)sc3ccc(F)cc23)c1O [2-034]
herbicidal effect rating, Q: false cleavers (false cleavers [1]; 320 g/ha): 0 (Herbicidal rate of 5% or less (almost no effect))
effect on windgrass (L) (windgrass; 320 g/ha): 4 (Herbicidal rate of 70% or more and less than 90%)
effect on false cleavers (Q) (false cleavers [2]; 320 g/ha): 4 (Herbicidal rate of 70% or more and less than 90%)

CCCC(=O)Oc1c(C)nn(C)c(=O)c1-c1c(-c2ccc(F)cc2OCC)sc2ccc(F)cc12 [2-085]
herbicidal effect rating, Q: false cleavers (false cleavers [1]; 320 g/ha): 4 (Herbicidal rate of 70% or more and less than 90%)
herbicidal effect on L: windgrass (windgrass; [4]): 1 (Herbicidal rate of 5% or more and less than 20%)
herbicidal effect on Q: false cleavers (false cleavers [2]; 320 g/ha): 5 (Herbicidal rate of 90% or more (almost completely withered))

Cc1nn(C)c(=O)c(-c2c(-c3ccc4c(c3)OCCO4)sc3ccc(F)cc23)c1O [2-092]
herbicidal effect on L: windgrass (windgrass; [4]): 4 (Herbicidal rate of 70% or more and less than 90%)
herbicidal effect on Q: false cleavers (false cleavers [2]; 320 g/ha): 4 (Herbicidal rate of 70% or more and less than 90%)

Cc1nn(C)c(=O)c(-c2c(-c3ccc(Br)cc3)sc3ccc(F)cc23)c1O [2-205]
Q: false cleavers, herbicidal effect rating (false cleavers [1]; [3]): 1 (Herbicidal rate of 5% or more and less than 20%)
herbicidal effect on L: windgrass (criteria 0-5) (windgrass; [4]): 5 (Herbicidal rate of 90% or more (almost completely withered))

COCC(=O)Oc1c(C)nn(C)c(=O)c1-c1c(-c2ccc(OC(F)F)cc2)sc2ccc(F)cc12 [2-283]
herbicidal effect on Q: false cleavers (false cleavers [1]; [3]): 0 (Herbicidal rate of 5% or less (almost no effect))
L: windgrass, herbicidal effect (criteria 0-5) (windgrass; [5]): 5 (Herbicidal rate of 90% or more (almost completely withered))
Q: false cleavers, herbicidal effect (criteria 0-5) (false cleavers [2]): 5 (Herbicidal rate of 90% or more (almost completely withered))

Cc1nn(C)c(=O)c(-c2c(-c3ccc(OC(F)F)cc3)sc3ccc(F)cc23)c1OC(=O)OCCCl [2-293]
L: windgrass, herbicidal effect (criteria 0-5) (windgrass; [5]): 4 (Herbicidal rate of 70% or more and less than 90%)
Q: false cleavers, herbicidal effect (criteria 0-5) (false cleavers [2]): 5 (Herbicidal rate of 90% or more (almost completely withered))

Cc1nn(C)c(=O)c(-c2c(-c3ccc(OC(F)F)cc3)sc3ccc(F)cc23)c1OC(=S)Sc1ccccc1 [2-298]
herbicidal effect on Q: false cleavers (false cleavers [1]; [3]): 0 (Herbicidal rate of 5% or less (almost no effect))
L: windgrass, herbicidal effect (criteria 0-5) (windgrass; [5]): 0 (Herbicidal rate of 5% or less (almost no effect))

Cc1nn(C)c(=O)c(-c2c(-c3ccc(O)cc3)sc3ccc(F)cc23)c1O [2-337]
herbicidal effect on Q: false cleavers (false cleavers [1]; [3]): 0 (Herbicidal rate of 5% or less (almost no effect))
L: windgrass, herbicidal effect (criteria 0-5) (windgrass; [5]): 0 (Herbicidal rate of 5% or less (almost no effect))

Cc1nn(C)c(=O)c(-c2c(-c3ccc([N+](=O)[O-])cc3)sc3ccc(F)cc23)c1O [2-341]
herbicidal effect on Q: false cleavers (false cleavers [1]; [3]): 0 (Herbicidal rate of 5% or less (almost no effect))
L: windgrass, herbicidal effect (criteria 0-5) (windgrass; [5]): 4 (Herbicidal rate of 70% or more and less than 90%)
